Data set [1] deals with Streptococcus pyogenes. Kind of data set: Antibacterial activity against Streptococcus pyogenes MTCC 442 at 250 ug/ml after 24 hrs by agar well diffusion method. Particulars: MTCC 442, 24 h, read-out: IZ. Type of data set: functional. (A growth-free zone around the sample is the usual read-out of agar diffusion tests.)
In data set [2] the target is DNA gyrase subunit A (Staphylococcus aureus, UniProt P20831). In words: Inhibition of Staphylococcus aureus DNA gyrase A expressed in Escherichia coli BL21(DE3) using relaxed pBR322 DNA as substrate incubated for 1 hr by bromophenol blue dye based agarose gel electrophoresis method.
Data set [3] relates to Escherichia coli. Kind of data set: Antibacterial activity against Escherichia coli MTCC 443 at 250 ug/ml after 24 hrs by agar well diffusion method. Type of data set: functional. Particulars: MTCC 443, 24 h, read-out: IZ.
Data set [4] is described as follows: Growth inhibition of human MCF7 cells at 10 to 150 ug/ml after 24 hrs by MTT assay relative to control. Type of data set: functional. In general terms: Tetrazolium dyes change colour on reduction, which living cells bring about.
Data set [5] deals with Pseudomonas aeruginosa. Kind of data set: Antibacterial activity against Pseudomonas aeruginosa MTCC 424 at 250 ug/ml after 24 hrs by agar well diffusion method. Format: functional. As to conditions: MTCC 424, 24 h, read-out: IZ.
The nature of data set [6]: Growth inhibition of human G361 cells at 10 to 150 ug/ml after 24 hrs by MTT assay relative to control. Type of data set: functional, G-361.
Data set [7] is described as follows: Growth inhibition of human MCF10 cells at 10 to 150 ug/ml after 24 hrs by MTT assay. Format: cell-based. Particulars: mcf10, 24 h.
Data set [8] deals with Staphylococcus aureus. In words: Antibacterial activity against Staphylococcus aureus MTCC 96 at 250 ug/ml after 24 hrs by agar well diffusion method. Format: functional. Particulars: MTCC 96, 24 h, read-out: IZ.
Data set [9] can be described thus: Growth inhibition of human G361 cells after 24 hrs by MTT assay. As to conditions: G-361, 24 h. Type of data set: functional, cell-based.
Data set [10] can be described thus: Growth inhibition of human MCF7 cells after 24 hrs by MTT assay. Format: functional, cell-based. Particulars: MCF7, 24 h.

Structures are written as SMILES.

In general, IC50 refers to the concentration at which inhibition is half-maximal. A low value points to inhibition by little substance.

DNA gyrase subunit A, sequence (P20831 whole entry, the tested form may be a part): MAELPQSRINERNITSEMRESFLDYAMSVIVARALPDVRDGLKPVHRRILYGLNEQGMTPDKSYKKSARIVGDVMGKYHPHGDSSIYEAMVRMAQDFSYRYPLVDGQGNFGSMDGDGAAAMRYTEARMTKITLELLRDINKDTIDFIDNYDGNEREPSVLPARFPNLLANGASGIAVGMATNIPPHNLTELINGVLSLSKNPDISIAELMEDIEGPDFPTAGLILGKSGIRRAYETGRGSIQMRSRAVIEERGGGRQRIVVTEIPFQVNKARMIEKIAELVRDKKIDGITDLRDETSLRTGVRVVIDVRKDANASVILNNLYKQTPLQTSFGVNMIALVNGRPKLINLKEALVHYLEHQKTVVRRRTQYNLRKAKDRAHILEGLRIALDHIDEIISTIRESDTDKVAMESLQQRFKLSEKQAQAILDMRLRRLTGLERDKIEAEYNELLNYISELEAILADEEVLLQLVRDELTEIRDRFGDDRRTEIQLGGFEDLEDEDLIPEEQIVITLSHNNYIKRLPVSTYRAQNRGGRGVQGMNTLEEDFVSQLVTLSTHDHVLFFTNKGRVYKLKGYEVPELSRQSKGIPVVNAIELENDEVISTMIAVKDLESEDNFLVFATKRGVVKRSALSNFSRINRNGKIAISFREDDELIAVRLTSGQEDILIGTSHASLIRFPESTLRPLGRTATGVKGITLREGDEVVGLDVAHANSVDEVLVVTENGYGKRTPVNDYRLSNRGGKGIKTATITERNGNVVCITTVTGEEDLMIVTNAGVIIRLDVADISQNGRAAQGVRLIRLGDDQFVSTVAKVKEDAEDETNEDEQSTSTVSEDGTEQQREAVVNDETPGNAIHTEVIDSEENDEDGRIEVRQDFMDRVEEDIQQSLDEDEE

Take `COc1ccc2nc(-c3cccc(Oc4ccccc4)c3)cc(-c3ccccc3)c2c1`: the zone of inhibition at 250 µg/mL in [1] is 22.7 mm; in data set [3], 21.4 mm; in data set [5] it was 10.8 mm; in [8], 29.6 mm. Further, the results for the IC50 in data set [2], in data set [9] and in data set [10] were 530 to 11500 nM, 2020 nM and 548 nM, respectively. For the same molecule, the “growth inhibition (GI)” value in data set [4] was 74.49%; in data set [6], 59.27%; in data set [7] it was “Non-Toxic”.

As to `Clc1ccc2nc(-c3cccc(Oc4ccccc4)c3)cc(-c3ccccc3)c2c1`, the zone of inhibition at 250 µg/mL in [1] was determined as 20.2 mm; in data set [3], 18.1 mm; in data set [5], 6.89 mm; in data set [8], 21.6 mm. The IC50 in data set [2] was 525 to 11300 nM; in data set [9] it was 12000 nM; in data set [10], 11000 nM. For the same molecule, the “growth inhibition (GI)” value in data set [4] is on record as 32.14%; in data set [6], 30.45%; in data set [7] it was “Non-Toxic”.

With `Oc1c(Cl)cc2nc(-c3cccc(Oc4ccccc4)c3)cc(-c3ccccc3)c2c1Cl`, the zone of inhibition at 250 µg/mL is 29.2 mm in data set [1], 26 mm in data set [3], 21.3 mm in data set [5] and 38.5 mm in data set [8]. Moreover, the 50% inhibitory concentration (IC50) is 467 nM in [2], 2000 nM in data set [9] and 702 nM in [10]. The “growth inhibition (GI)” value in [4] was 73.17%; in data set [6], 60.34%; in data set [7] it was “Non-Toxic”.

Consider `Fc1ccc2nc(-c3cccc(Oc4ccccc4)c3)cc(-c3ccccc3)c2c1`, for which the zone of inhibition at 250 µg/mL in [1] is 18.5 mm; in data set [3] it was 18.3 mm; in data set [5], 10.4 mm; in [8], 29.9 mm. For the same molecule, the values for the half-maximal inhibitory concentration (IC50) in data set [2], in [9] and in data set [10] were 912 to 994 nM, 3850 nM and 1680 nM, respectively. Also, the “growth inhibition (GI)” value in [4] is on record as 60.25%; in [6] it was 46.24%; in [7], “Non-Toxic”.

As for `Oc1ccc2nc(-c3cccc(Oc4ccccc4)c3)cc(-c3ccccc3)c2c1`, the zone of inhibition at 250 µg/mL was 29.8 mm in data set [1], 26.5 mm in [3], 16.5 mm in [5] and 34.6 mm in data set [8]. The 50% inhibitory concentration (IC50) in [2] is 842 to 1070 nM; in data set [9] it was 2070 nM; in data set [10], 694 nM. For the same molecule, the “growth inhibition (GI)” value in data set [4] was 72.56%; in data set [6], 58.46%; in data set [7], “Non-Toxic”.

`Brc1ccc2nc(-c3cccc(Oc4ccccc4)c3)cc(-c3ccccc3)c2c1`: the zone of inhibition at 250 µg/mL in [1] turned out to be 22.4 mm; in data set [3], 16.4 mm; in data set [5], 9.79 mm; in data set [8], 22.5 mm. In addition, the IC50 in [2] is 473 to 10200 nM; in [9], 14600 nM; in data set [10], 11100 nM. Also, the “growth inhibition (GI)” value in [4] was 30.81%; in data set [6], 28.89%; in data set [7], “Non-Toxic”.

`Cc1cc2nc(-c3cccc(Oc4ccccc4)c3)cc(-c3ccccc3)c2cc1C`: the zone of inhibition at 250 µg/mL in data set [1] is 22.5 mm; in [3], 22.5 mm; in data set [5], 11.4 mm; in data set [8] it was 27.5 mm. Moreover, the half-maximal inhibitory concentration (IC50) is 533 to 11500 nM in data set [2], 5840 nM in [9] and 3410 nM in data set [10]. The figures for the “growth inhibition (GI)” value in data set [4], in [6] and in data set [7] were 48.34%, 38.18% and “Non-Toxic”, respectively.

Regarding `N#Cc1ccc2nc(-c3cccc(Oc4ccccc4)c3)cc(-c3ccccc3)c2c1`, the zone of inhibition at 250 µg/mL in [1] is 21.2 mm; in data set [3] it was 16.5 mm; in data set [5], 12.7 mm; in [8] it was 26.5 mm. Also, the 50% inhibitory concentration (IC50) is 537 to 11600 nM in [2], 2150 nM in data set [9] and 822 nM in data set [10]. For the same molecule, the “growth inhibition (GI)” value is listed as 70.64% in data set [4], 54.38% in [6] and “Non-Toxic” in [7].

Take `CO[C@@H]1[C@@H](OC(=O)c2ccc(C)[nH]2)[C@@H](O)[C@H](Oc2ccc3c(O)c(NC(=O)c4ccc(O)c(CC=C(C)C)c4)c(=O)oc3c2Cl)OC1(C)C` [CHLOROBIOCIN]: the half-maximal inhibitory concentration (IC50) in data set [2] was 930 nM. This counts as sub-micromolar.

As for `O=C(O)c1cn(C2CC2)c2cc(N3CCNCC3)c(F)cc2c1=O` [CIPROFLOXACIN], the zone of inhibition at 250 µg/mL in [1] is 18 to 24.4 mm; in [3] it was 21 to 26.7 mm; in data set [5], 21 to 23.8 mm; in data set [8], 21 to 26.4 mm.

With `COc1cccc2c1C(=O)c1c(O)c3c(c(O)c1C2=O)C[C@@](O)(C(=O)CO)C[C@@H]3O[C@H]1C[C@H](N)[C@H](O)[C@H](C)O1` [DOXORUBICIN], the “growth inhibition (GI)” value in data set [4] was 71.56%. This molecule also registered an IC50 in data set [10] of 812 to 1200 nM.

Source of the values: ChEMBL document CHEMBL3877314, “Molecular docking, discovery, synthesis, and pharmacological properties of new 6-substituted-2-(3-phenoxyphenyl)-4-phenyl quinoline derivatives; an approach to developing potent DNA gyrase inhibitors/antibacterial agents” (Bioorg Med Chem, 2017).
